Earlier results, collected in US8470984B2, “Process for the preparation of morpholinyl anthracycline derivatives” (Nerviano Medical Sciences S.R.L., priority 2010, dated 2013).

COc1cccc2c1C(=O)c1c(O)c3c(c(O)c1C2=O)C[C@@](O)(C(=O)CO)C[C@@H]3O[C@H]1C[C@H]2[C@H](O[C@@H]3[C@@H](OC)OCCN32)[C@H](C)O1 [compound 1, 3′-deamino-3″-4′-anhydro-[2″(S)-methoxy-3″(R)-hydroxy-4″-morpholinyl]doxorubicin]
efficacy in in vivo tumor models (tumor models): effective in in vivo tumor models
cytotoxicity in vitro relative to nemorubicin and doxorubicin: more cytotoxic than nemorubicin and doxorubicin
